Measured values from article PMC7239831, “Suitability of Artificial Membranes in Lipolysis-Permeation Assays of Oral Lipid-Based Formulations” (Pharmaceutical Research, 2020).
One block for each compound: values may come before it.

Key:
[1] = Integrity assay with static digest matrix (LY mass transfer); format: in vitro ADME; conditions: GIT-0 membranes
Description: Six samples of 4 ml were taken during dispersion and digestion phases of single-compartment in vitro lipolysis (Fig. 1a) of a formulation over a period of 40 min. The formulation was of type IIIB-MC (medium chain length triglyceride component, 8–10 carbons) according to the Lipid Formulation Classification System (LFCS) ([27]), see Table I for composition. […] To visualize membrane integrity, Lucifer Yellow (LY) in DMSO solution was added to each sample to a final LY concentration of 10 μM and 0.1% DMSO. LY is highly hydrophilic; its permeation through intact lipid membranes should therefore be negligible. The sample tubes were then vortexed, and shaken at 450 rpm at 37°C until further use.
Digestion samples were dispensed (1.2 ml) into the donor compartments of Transwell inserts treated to form artificial membranes. Negative controls comprised only blank digestion medium or lipolysis buffer (both containing LY, 10 μM) in the donor compartment. Positive controls were untreated inserts composed of naked polycarbonate filters, or GIT-0 solution added to pre-wet filters (disrupts membrane formation). The receiver compartments contained 2 ml of either plain phosphate buffer (PB, 10 mM), Acceptor Sink Buffer (20 mM HEPES, 1% w/v SDS), or PB supplemented with 4% w/w bovine serum albumin (BSA). All receiver buffers were adjusted to pH 7.40.
From examination of mass transfer profiles, membrane damage was evaluated by Area Under the Curve (AUC) values of LY mass transfer over time. The criteria were that an LY AUC > 10 nmol min cm^−2 was considered to indicate major membrane disruption, while an LY AUC < 1 nmol min cm^−2 was considered to indicate an intact membrane.
LY presence was detected using fluorescence (Spark or Safire^2 plate readers, Tecan, Austria) at 428 and 536 nm wavelength for excitation and emission, respectively. Samples were diluted 1:2 in ice-cold acetonitrile and centrifuged (4°C, 2465 g for 20 min) to precipitate protein content.

[2] = Integrity assay under dynamic digestion conditions (LY mass transfer); format: in vitro ADME; conditions: LiDo on PVDF; up to two hours
Description: HDM, GIT-0 and LiDo membranes were subjected to in situ lipolysis of the IIIB-MC LBF in a 6-well culture plate format. Transwell inserts (diameter of 24 mm) were used for polycarbonate filters, and inserts were made in-house to hold the PVDF filters (diameter of 25 mm). For these lipolysis experiments, a modified digestion medium with greater buffering capacity was used. The digestion medium contained 200 mM Tris-maleate in these experiments to maintain pH within 0.3 units of the initial value of the lipolysis buffer (pH 6.5) over one hour of digestion (Table S2, Supplementary Material), since no autotitration could be used in the setup. LBF was weighed into a glass tube, and 10 ml of this modified digestion medium spiked with 10.3 μl of LY in DMSO solution (10 mM) was added and vortexed. […]
GIT-0 and LiDo membranes were also evaluated in a large-scale (75 mm diameter) in-house developed lipolysis-permeation device named “ENA” ([19]) in order to explore whether these two lipid mixtures with theoretically similar compositions and production methods also yielded similar results. […]
LY presence was detected using fluorescence (Spark or Safire^2 plate readers, Tecan, Austria) at 428 and 536 nm wavelength for excitation and emission, respectively. […]

[3] = In vitro lipolysis-permeation assay of fenofibrate-loaded LBFs in the ENA device (porcine pancreatin); format: in vitro ADME
Description: Three formulations representing LFCS types IIIA-MC, IIIA-LC (long chain fatty acid component), and type IV (Table I) were assayed for their performance using artificial membranes in the ENA device. No more than one week before the assay, excipients were heated to 37°C before being weighed into a glass vial. The vial was capped with argon, vortexed, and then shaken overnight (450 rpm, 37°C). The formulations were then loaded with fenofibrate (80 mg/g) in the same manner, and shaken until complete dissolution.
The loaded formulations were weighed separately and then dispensed into ENA donor compartments (Fig. 1b) that had been prefilled with digestion medium spiked with LY to 10 μM (0.1% DMSO). Samples were taken from both compartments during dispersion (0–10 min) and digestion (10–100 min). Samples from the donor compartment were immediately filtered through a hydrophilic nylon syringe filter (Whatman PuraDisc 13, pore size 0.1 μm) to separate precipitates and oil droplets from fenofibrate in free solution and in colloidal aggregates, using the same procedures as those described in Juenemann et al. and Stillhart et al. ([28],[29]). The syringe filters were then flushed through with room temperature acetonitrile to recover precipitated fenofibrate. […] Phases were instead separated through centrifugation (37°C, 21,000 g for 15 min) for these samples. Receiver compartment samples were then quantified using UPLC-MS, and donor samples using HPLC-UV.
Fenofibrate was analyzed using a UV-DAD coupled HPLC (1290 Infinity, Agilent Technologies) with a Zorbax Eclipse XDB-C18 column (4.6 × 100 mm, Agilent Technologies) kept at 40°C (injection volume 20 μl). The mobile phase consisted of sodium acetate buffer (25 mM, pH 5.0) in acetonitrile solution (2:8 v/v) with isocratic flow (1 ml/min). UV absorbance was monitored at a wavelength of 287 nm. The retention time was 3.32 min. Sample preparation consisted of 100x dilution in mobile phase and a centrifugation step (21,000 g, 15 min, 25°C) to purify the matrix. […]

Caco-2 monolayer = assay: Caco-2 based lipolysis-permeation assay in ENA (data re-analyzed from Keemink et al.); conditions: average over formulations
[4] = design: method as in PMID 23500116, doi:10.1016/j.jddst.2016.06.013, PMID 28826878; conditions: cited from earlier work

LY mass transfer AUC15-60 min ([1]; Fig. 2c, Acceptor Sink Buffer in receiver per legend, 30 min digestion sample): < LOQ
LY mass transfer AUC15-60 min ([1]; Fig. 2c, Acceptor Sink Buffer in receiver per legend, dispersion sample of IIIB-MC LBF): < LOQ
LY mass transfer AUC15-60 min ([1]; Fig. 2d, PB with 4% BSA in receiver per legend, 30 min digestion sample): < LOQ
LY mass transfer AUC15-60 min ([1]; Fig. 2d, PB with 4% BSA in receiver per legend, dispersion sample of IIIB-MC LBF): < LOQ
LY permeation through membrane [2]: did not allow detectable levels
Compound: Lucifer Yellow CH dilithium salt [LY]

Detection of fenofibric acid (control of API degradation during lipolysis and sample storage) ([3]; UPLC-MS, all samples): no fenofibric acid could be detected
Compound: CC(C)(Oc1ccc(C(=O)c2ccc(Cl)cc2)cc1)C(=O)O [fenofibric acid]

Caco-2 permeability relative to LiDo after adjusting for filter porosity (ε) (Caco-2 monolayer): 1.8 fold
Ratio between Caco-2 and LiDo permeability (Caco-2 monolayer; uncorrected Papp): 0.42
Expected flux in vivo relative to flux over LiDo/Caco-2 ([3]; based on expected permeability in human small intestine): 10 fold
Flux of fenofibrate over LiDo relative to flux of cinnarizine over Permeapad ([3]; under comparable conditions, average, Permeapad data ref 40): 334 fold
Compound: CC(C)OC(=O)C(C)(C)Oc1ccc(C(=O)c2ccc(Cl)cc2)cc1 [fenofibrate]
Permeability (in words) [4]: highly permeable
